This is an account of results in patent publication US6540792B1, “Cellulose fiber-containing structure” (priority 1999, dated 2003).

Molecules are shown by their SMILES.

A short description of this data set: Inorganic value/organic value ratio calculated by the organic concept (Fujita). To be noted: concluded from the inorganic value/organic value ratio. The text has this: The “inorganic value/organic value ratio” in this invention is an indicator contrived by Minoru Fujita, to express the polarity of various organic compounds in view of organic concept [see Revised Edition, Science of Chemical Experiments, Organic Chemistry, Kawade shobo (1971)]. For the ratio, the organic value of one carbon (C) atom is decided as 20, and the inorganic and organic values of various polar groups are decided in reference to it, as shown in Table 1. The inorganic value/organic value ratio refers to the ratio of the sum of inorganic values to the sum of organic values.
According to this organic concept, for example, the inorganic value/organic value ratio of polyethylene terephthalate can be calculated as 0.7. In this invention, attention is paid to the affinity between synthetic fibers and an antimicrobial agent based on the value calculated according to the organic concept, and an antimicrobial agent with the inorganic value/organic value ratio kept in a predetermined range is caused to adhere to or to be exhausted and diffused into the synthetic fibers.
For example, in the case of 2,3,5,6-tetrachloro-4-hydroxypyridine, since it has one benzene nucleus, four —Cl groups, one —OH group and one —NR2 group, the inorganic value is 265. On the other hand, since it has five C (carbon) atoms and four —Cl groups, the organic value is 180. […]

In the case of `[Na+].[O-][n+]1ccccc1[S-]` [2-pyridylthiol-1-oxide sodium], the affinity to polyesters entry is “poor”.
